These results are taken from US20090197938A1, “Polyphenol Type Compounds, Compositions Containing Same and Use Thereof for Preventing or Treating Diseases Involving Abnormal Cell Proliferation” (Fluofarma, priority 2005, published 2009).

Assay [1] concerns cancer cells. The assay is described as follows: Effect on cell proliferation at 24H and 48H. The following applies: 24H and 48H (figure). The format is cell-based. The text has this: (§1) FIG. 1 represents the effect of different concentrations of Castaline on apoptosis at 24H and 48 H and cell proliferation at 24H and 48H.
(§2) FIG. 2 represents the effect of different concentrations of Vescalene on apoptosis at 24H and 48 H and cell proliferation at 24H and 48H.
(§3) FIG. 3 represents the effect of different concentrations of Castalagine on apoptosis at 24H and 48H and cell proliferation at 24H and 48H.
(§4) FIG. 4 represents the effect of different concentrations of Acutissimine on apoptosis at 24H and 48H and cell proliferation at 24H and 48H.

For assay [2], the system named is cancer cells. Conditions: cited from earlier work.
Assay [3] deals with cancer cells. The assay is described as follows: Pro-apoptotic activity (apoptosis at 24H and 48H). The format is cell-based. Conditions: different concentrations, 24H and 48H (figure).
Description: as §1, §2, §3, §4

Assay [4] deals with DNA topoisomerase II. The assay is described as follows: Inhibition of DNA topoisomerase II (decatenation). The format is biochemical. The text has this:
Inhibition of DNA Topoisomerase II

In the case of Acutissimine A [reference compound], the “effect on cell proliferation with subtoxic doses” value (“effect on cell proliferation” for short) in assay [1] is listed as “increases cell proliferation”. The “proliferation of cancer cells with subtoxic doses (background statement)” value (“proliferation of cancer cells” for short) in assay [2] is recorded as “stimulate the proliferation of cancer cells”.
For Castalagine [reference compound], the “effect on cell proliferation” value in assay [1] is “increases cell proliferation”. Moreover, the “proliferation of cancer cells” value in assay [2] is “stimulate the proliferation of cancer cells”.
Take Castaline: the pro-apoptotic activity result in assay [3] is “has a pro-apototic activity”. Further, in assay [1], the “effect on cell proliferation” value is reported as “does not increase cell proliferation in a noteworthy manner”. Also, the results for the “Inhibition of decatenation (%)” value in assay [4] (compound concentration 1 μm) and in assay [4] (compound concentration 10 μm) were 87.9% and 67.0%, respectively.
Taken in the same sequence, the figures for Vescalene were “has a pro-apoptotic activity”, “does not increase cell proliferation in a noteworthy manner”, 78.8% and 97.3%.
On to Vescaline, for which the “Inhibition of decatenation (%)” value in assay [4] (compound concentration 1 μm) came to 95.5%; in assay [4] (compound concentration 10 μm) it was 100%.
With acutissimine B, the “proliferation of cancer cells” value in assay [2] was “stimulate the proliferation of cancer cells”.
With epiacutissamine A, in assay [2], the “proliferation of cancer cells” value is listed as “stimulate the proliferation of cancer cells”.
Turning to epiacutissamine B, in assay [2], the “proliferation of cancer cells” value was “stimulate the proliferation of cancer cells”.
In the case of vescalagine, the “proliferation of cancer cells” value in assay [2] was “stimulate the proliferation of cancer cells”.
